Laboratory results published in patent publication US7759392B2, “Pharmaceutical compounds” (Nicox S.A., priority 1999, dated 2010).
Like-named read-outs stand apart in the source and are kept apart here.

Tests used:
gastrointestinal mucosa [1] = conditions: male, Wistar, rat, in vivo, 6 h
Description: Gastric lesions induced by administration of the compounds of the invention in the confront of the corresponding drug precursor.
The animals have been sacrificed 6 hours after the administration. The gastrointestinal mucosa has been removed and inspected. The incidence of the gastrointestinal damage has been evaluated as described in experiment F1.

gastrointestinal mucosa [2] = conditions: rat, in vivo, po
gastrointestinal mucosa [3] = conditions: rat, in vivo
Description: The animals (rats) are distributed in the following groups (no. 10 animals for group):
• 1° group: treatment: only carrier (aqueous suspension 1% w/v of carboxymethylcellulose, dose: 5 ml/Kg when the drug is administered by os, or a physiologic solution when parenterally administered, i.e. by subcutaneous, intraperitoneal, intravenous or intermuscular route), • 2° group: treatment: carrier as above defined+NEM, B) Groups Treated with the Drug: • group I: treatment: carrier+drug, • group II: treatment: carrier+drug+NEM.
The administration routes are those known for the drug, and can be the oral or subcutaneous, intraperitoneal, intravenous or intramuscular route.
The animals are sacrificed after 24 hours and then one proceeds to the evaluation of the damage to the gastrointestinal mucosa.
Test 1—experimental model in vivo with N-ethylmaleimide (NEM): study of the gastric tolerability of some drugs screened as precursors of the compounds of the invention.
The animals (rats, weight about 200 g) are distributed in the following groups (No. 10 animals for group):
• 1° group: treatment: only carrier (aqueous suspension 1% w/v of carboxymethylcellulose, dose: 5 ml/Kg when the drug is administered by os, physiologic solution when by parenteral route), • 2° group: treatment: carrier+NEM, B) Groups Administered with Each Drug: • group I: treatment: carrier+drug, • group II: treatment: carrier+drug+NEM.
The drug is administered one hour later, in suspension in the carrier. Animals are sacrificed after 24 hours and evaluation of the damage to the gastrointestinal mucosa is made by counting the number of rats, inside each group, with lesions to the stomach at a visual inspection. The total number of said rats is then divided by the total number of rats of the group and multiplied by 100.

[4] = system: human endothelial cells of the umbilical vein; assay: Test 2 (CIP): apoptosis (DNA fragmentation) induced by cumene hydroperoxide in endothelial cells; format: cell-based; conditions: drug 10^-4 M; CIP 5 mM
Description: Test 2 (CIP): Protection parameter of endothelial cell against the oxidative stress induced by cumene hydroperoxide (CIP).
Human endothelial cells of the umbilical vein are prepared according to an usual standard procedure. Fresh umbilical veins are filled with a 0.1% by weight collagenase solution and incubated at 37° C. for 5 minutes.
The cells are collected from the perfusate by centrifugation and harvested in culture flasks T-75, pretreated with human fibronectin. The cells are then harvested in the same medium, further added with 10 ng/ml of bovine hypothalamic growth factor. When the cells of the primary cell culture (i.e. that directly obtained from ex-vivo) form a single layer of confluent cells (about 8,000,000 cells/flask), the culture is stopped and the layers washed and trypsinized. The cellular suspensions are transferred into the wells of a cell culture plate having 24 wells, half of which is then additioned with the same culture medium containing the drug at a 10^−4M concentration, and harvested in a thermostat at 37° C. at a constant moisture. Only the cells coming from said first sub-cultures are used for the experiments with cumene hydroperoxide (CIP).
Before starting the test, the cellular culture medium is removed and the cellular layers are carefully washed with a physiologic solution at a temperature of 37° C. The wells of the culture plate are then incubated for one hour with CIP at a 5 mM concentration in the culture medium. […] 5 replicates for each sample are carried out.
Human endothelial cells of the umbilical vein are prepared according to a standard method. Fresh umbilical veins are filled with a collagenase solution 0.1% by weight and incubated at 37° C. for 5 minutes.
The cells are collected from the perfusate by centrifugation at 800 rpm and harvested in culture flasks T-75, pretreated with human fibronectin. Cells are then harvested in the same medium, added with bovine hypothalamic growth factor (100 ng/ml). When the cells of the primary cell culture (the cells directly removed from ex-vivo umbilical vein) form a single layer of confluent cells (about 8,000,000 cells/flask), harvesting is stopped and the layers are washed and trypsinized. The cellular suspensions are transferred into wells of a culture plate having 24 wells, half of said wells being added with the same culture medium containing the drug at a 10^−4M concentration, and harvested in a thermostat at 37° C. at a constant moisture (90%), CO2=5%. When the drug is not soluble in the culture medium, it is formerly dissolved in a small amount of dimethylsulphoxide. The maximum amount of dimethylsulphoxide which can be added to the culture medium is 0.5%. Only the cells coming from these first subcultures are used for the tests with cumene hydroperoxide (CIP).
Before starting the test, the cellular culture medium is removed and the cellular layers are carefully washed with a standard physiologic solution buffered with phosphate 0.1 M pH 7.0, at the temperature of 37° C. The content of each well is then incubated for one hour with a CIP suspension in the culture medium at a 5 mM concentration. Evaluation of the cellular damage (apoptosis) is carried out by determining the percent variation of the DNA fragmentation in the cultures containing the drug+CIP with respect to the controls treated with CIP only. […] The fluorescence of each sample was determined on 5 replicates. Statistic evaluation has been made with t Student test (p<0.01).

[5] = system: human endothelial cells of the umbilical vein; assay: Experiment F6: apoptosis (DNA fragmentation) induced in endothelial cells by hydrogen peroxide; format: cell-based; conditions: Endothelial cell, products 100 mmoles/l, hydrogen peroxide 200 mmoles/l, 18 hours, read-out: Apoptosis % (respect to the controls treated only with CIP)
Source text: It has been Evaluated the Activity of Some of the Compounds Object of the Present Invention and of the Corresponding Precursor Drugs in Inhibiting DNA Degradation (Apoptosis) in Endothelial Cells Exposed to the Action of Hydrogen Peroxide (HP)
Hydrogen peroxide is a mild oxidant and is considered as an essential mediating agent in pathologies associated with oxidative stress (B. Halliwell, J. Gutteridge “Free Radicals in Biology and Medicine”, page 416, 1993). Therefore the pharmacological activity of compounds to be used under oxidative stress conditions is evaluated through their capability of neutralizing the cytolesive effects of the hydrogen peroxide (B. Halliwell, J. Gutteridge “Free Radicals in Biology and Medicine”, page 416, 1993).
The method described by Herman et Al. (Herman C., Zeiner M. A., Dimmeler S., Arterioscler. Thromb. Vasc. Biol. 17 (12), 3588-82, 1997).
Human endothelial cells of the umbilical vein are prepared according to a standard method. Fresh umbilical veins, just removed, are filled with a solution of collagenase at 0.1% and incubated at 37° C. for 5 minutes.
Subsequently the veins are perfused with medium M 199 (GIBCO, Grand Island, N.Y.) pH 7.4 containing 20% of human serum. The cells are collected from the perfusate by centrifugation at 800 rpm and harvested in culture flasks T-75, pretreated with human fibronectin. […]

| SMILES | Gastropathy % incidence (gastrointestinal mucosa [1]) [%] | Gastropathy % incidence (gastrointestinal mucosa [2]) [%] | Gastro-enteropathy (% incidence) without NEM (gastrointestinal mucosa [3]) [%] | gastrointestinal damages / gastric lesions in rats treated with NEM + drug (in words) (gastrointestinal mucosa [3]) | inhibition of apoptosis induced by CIP (in words, p<0.01) [4] | activity at 100000 µM [5] [%] |
| --- | --- | --- | --- | --- | --- | --- |
| CN(CCOC(=O)Cc1ccccc1Nc1c(Cl)cccc1Cl)CCO[N+](=O)[O-] [Example 14] | 0 | 20 | – | – | – | – |
| Nc1c2c(nc3ccccc13)CCCC2 [Tacrine, tacrine] | 60 | – | 0 | showed gastric lesions | do not significantly inhibit apoptosis | 8 |
